Data published in ChEMBL document CHEMBL1126649, “Development of a pharmacophore for inhibition of human liver cytochrome P-450 2D6: molecular modeling and inhibition studies” (J Med Chem, 1993).

Assays:
Cytochrome P450 2D6 [1] = target: T1, Cytochrome P450 2D6 (Homo sapiens, UniProt P10635); experiment: Inhibitory effect on Bufuralol 1'-hydroxylation by human liver microsomes (Ki = apparent inhibition constant); format: ADME, Microsome
Cytochrome P450 2D6 [2] = target: T1, Cytochrome P450 2D6
Cytochrome P450 2D6 [3] = target: T1, Cytochrome P450 2D6; remark: listed apart in the source
Cytochrome P450 2D6 [4] = target: T1, Cytochrome P450 2D6; remark: listed apart in the source
Cytochrome P450 2D6 [5] = target: T1, Cytochrome P450 2D6; experiment: Apparent inhibitory constant (Ki) for Bufuralol 1'-hydroxylation by human liver microsomes; format: ADME, Microsome
Cytochrome P450 2D6 [6] = target: T1, Cytochrome P450 2D6; remark: listed apart in the source
Cytochrome P450 2D6 [7] = target: T1, Cytochrome P450 2D6; experiment: Inhibition of partially purified cytochrome P450 2D6 1'-hydroxybufuralol formation
Cytochrome P450 2D6 [8] = target: T1, Cytochrome P450 2D6; remark: listed apart in the source
Cytochrome P450 2D6 [9] = target: T1, Cytochrome P450 2D6; experiment: Inhibitory constant for cytochrome P450 2D6; format: ADME
Cytochrome P450 2D6 [10] = target: T1, Cytochrome P450 2D6; remark: listed apart in the source

T1 sequence (P10635 whole entry): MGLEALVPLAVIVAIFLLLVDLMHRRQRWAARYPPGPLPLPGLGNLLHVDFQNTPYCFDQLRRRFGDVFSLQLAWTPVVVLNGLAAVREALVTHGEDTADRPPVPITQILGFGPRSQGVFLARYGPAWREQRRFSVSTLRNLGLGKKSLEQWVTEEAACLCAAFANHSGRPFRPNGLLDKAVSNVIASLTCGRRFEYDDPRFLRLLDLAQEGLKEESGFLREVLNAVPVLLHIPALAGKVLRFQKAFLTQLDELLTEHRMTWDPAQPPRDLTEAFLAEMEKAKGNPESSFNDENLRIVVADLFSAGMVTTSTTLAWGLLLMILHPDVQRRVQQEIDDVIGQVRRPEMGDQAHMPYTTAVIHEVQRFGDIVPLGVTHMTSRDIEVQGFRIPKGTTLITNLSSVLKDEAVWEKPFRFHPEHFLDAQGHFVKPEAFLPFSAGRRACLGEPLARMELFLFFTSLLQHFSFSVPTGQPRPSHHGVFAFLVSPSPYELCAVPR

In the case of `C=CC1C[N+]2(c3ccccc3)CCC1CC2C(O)c1ccnc2ccc(OC)cc12` (centres undefined), the Ki (Cytochrome P450 2D6 [1]) is reported as 25 µM.

`COc1ccc2[nH]cc(CCO)c2c1` showed a Ki (Cytochrome P450 2D6 [1]) of 100 µM.

For `COc1ccc2ncccc2c1`, the Ki (Cytochrome P450 2D6 [1]) was greater than 1000 µM.

With `CC1OC=C(CO)[C@H]2C[C@H]3c4[nH]c5ccccc5c4CCN3CC12` (some centres undefined) the Ki (Cytochrome P450 2D6 [1]) was 1.1 µM.

`C=CC1CN2CCC1CC2C(=O)c1ccnc2ccc(OC)cc12` (centres undefined) showed a Ki (Cytochrome P450 2D6 [1]) of 0.72 µM.

Work on `C=CC1CN2CCC1C[C@H]2[C@H](O)c1ccnc2ccc(Cl)cc12` (some centres undefined) yielded a Ki (Cytochrome P450 2D6 [1]) of 3.5 µM.

For `COC(=O)C1=CO[C@H](C)[C@H]2CN3CCc4c([nH]c5ccccc45)[C@@H]3C[C@H]12`, the Ki (Cytochrome P450 2D6 [1]) was 0.017 µM.

`CCC1CN2CCC1CC2[C@H](O)c1ccnc2ccccc12` (some centres undefined) was tested, and the Ki (Cytochrome P450 2D6 [2]) was 24 µM, the Ki (Cytochrome P450 2D6 [3]) was 8 µM and the Ki (Cytochrome P450 2D6 [4]) was 9.6 µM.

Compound `C=CC1CN2CCC1C[C@@H]2[C@@H](O)c1ccnc2ccc(Cl)cc12` (some centres undefined) has a Ki (Cytochrome P450 2D6 [1]) of 0.52 µM.

In the case of `COC(=O)C1=CNC(C)C2CN3CCc4c([nH]c5ccccc45)[C@@H]3C[C@H]12` (some centres undefined), the Ki (Cytochrome P450 2D6 [1]) is reported as 2.9 µM.

With `O=C(O)[C@H]1[C@H]2C[C@H]3c4[nH]c5ccccc5c4CCN3C[C@@H]2CC[C@H]1O` the Ki (Cytochrome P450 2D6 [1]) was 6.3 µM.

For `COC(=O)C1=CO[C@@H](C)[C@H]2C[n+]3ccc4c([nH]c5ccccc54)c3C[C@H]12`, the Ki (Cytochrome P450 2D6 [1]) was 2.2 µM.

`CCC1CN2CCC1CC2C(O)c1ccnc2ccccc12` (centres undefined) gave a Ki (Cytochrome P450 2D6 [2]) of 3.2 µM, a Ki (Cytochrome P450 2D6 [3]) of 1.6 µM and a Ki (Cytochrome P450 2D6 [4]) of 2.8 µM.

Compound `C=CC1CN2CCC1C[C@@H]2[C@@H](O)c1ccnc2ccccc12` (stereo in doubt; 9b) has a Ki (Cytochrome P450 2D6 [5]) of 3500 nM, a Ki (Cytochrome P450 2D6 [2]) of 5.4 µM and a Ki (Cytochrome P450 2D6 [6]) of 1000 nM. For the same compound, the Ki (Cytochrome P450 2D6 [7]) was 2.6 µM, the Ki (Cytochrome P450 2D6 [3]) was 3.5 µM and the Ki (Cytochrome P450 2D6 [4]) was 3.5 µM.

In the case of `C=CC1CN2CCC1C[C@@H]2[C@@H](O)c1ccnc2ccccc12` (stereo in doubt; 10b), the Ki (Cytochrome P450 2D6 [1]) is reported as 7.5 µM, the Ki (Cytochrome P450 2D6 [2]) is reported as 16 µM and the Ki (Cytochrome P450 2D6 [8]) is reported as 9.3 µM. It also gave a Ki (Cytochrome P450 2D6 [7]) of 25 µM, a Ki (Cytochrome P450 2D6 [3]) of 7.5 µM and a Ki (Cytochrome P450 2D6 [4]) of 7.3 µM.

`COC(=O)C1=CO[C@@H](C)[C@H]2C=[N+]3CCc4c([nH]c5ccccc45)[C@@H]3C[C@H]12` [CATHENAMINE] gave a Ki (Cytochrome P450 2D6 [1]) of 3.2 µM.

For `CCC1CN2CCC1CC2[C@@H](O)c1ccnc2ccc(OC)cc12` (some centres undefined) [DIHYDROQUINIDINE], the Ki (Cytochrome P450 2D6 [1]) was 0.066 µM.

For `Cc1nccc2c1[nH]c1ccccc12` [HARMAN], the Ki (Cytochrome P450 2D6 [1]) was 86 µM.

With `CC[C@H]1CN2CC[C@H]1C[C@H]2[C@H](O)c1ccnc2ccc(OC)cc12` [HYDROQUININE] the Ki (Cytochrome P450 2D6 [1]) was 4 µM.

For `CN1[C@@H](CC(=O)c2ccccc2)CCC[C@H]1C[C@H](O)c1ccccc1` [LOBELINE], the Ki (Cytochrome P450 2D6 [9]) was 120 nM.

With `CC(C)N1CCC(c2ccccc2)(c2ccccc2)CC1` [PRODIPINE] the Ki (Cytochrome P450 2D6 [9]) was 4.8 nM.

With `c1ccc2c(c1)[n-]c1c3[n+](ccc12)CC1CCCCC1C3` (centres undefined) [SEMPERVIRINE] the Ki (Cytochrome P450 2D6 [1]) was 9.7 µM.

With `COC(=O)C1=CO[C@@H](C)[C@@H]2CN3CCc4c([nH]c5ccccc45)[C@@H]3C[C@H]12` [TETRAHYDROALSTONINE] the Ki (Cytochrome P450 2D6 [1]) was 1.1 µM.

RAUWOLFIA SERPENTINA showed a Ki (Cytochrome P450 2D6 [10]) of 4.6 nM and a Ki (Cytochrome P450 2D6 [5]) of 4.6 nM.
